# Experimental data from ChEMBL document CHEMBL1142969, “Venturamides A and B: antimalarial constituents of the panamanian marine Cyanobacterium Oscillatoria sp” (J Nat Prod, 2007).
# Assays:
# Vero = assay: Cytotoxicity against Vero cells after 72 hrs; format: cell-based; conditions: Chlorocebus sabaeus
# MCF7 = assay: Growth inhibition of MCF7 cells; format: functional, cell-based; conditions: Homo sapiens
# Trypanosoma cruzi = assay: Growth inhibition of Trypanosoma cruzi recombinant Tulahuen C4; format: functional, organism-based
# Plasmodium falciparum = assay: Antiplasmodial activity against chloroquine-resistant Plasmodium falciparum W2 Indochina; format: functional, organism-based
# Leishmania donovani = assay: Growth inhibition of Leishmania donovani MHOM/SD/00-1S after 72 hrs by amastigote assay; format: functional, organism-based
Compound,IC50 (Vero) [µM],IC50 (MCF7) [µM],IC50 (Trypanosoma cruzi) [µM],IC50 (Plasmodium falciparum) [µM],IC50 (Leishmania donovani) [µM]
Cc1oc2nc1C(=O)N[C@H](C)c1nc(cs1)C(=O)N[C@H](C(C)C)c1nc(cs1)C(=O)N[C@@H]2C [VENTURAMIDE A],86,13.1,14.6,8.2,> 20
Cc1oc2nc1C(=O)N[C@H]([C@@H](C)O)c1nc(cs1)C(=O)N[C@H](C(C)C)c1nc(cs1)C(=O)N[C@@H]2C [VENTURAMIDE B],56,> 54,15.8,5.2,> 19
